From PMC11767582, “Synthesis and Biological Evaluation of New cis-Restricted Triazole Analogues of Combretastatin A-4” (Molecules, 2025)
Where two headings read alike, the source gives them in different places.

Tests used:
[1] = tested on: human colon cancer cell line HT-29; test: MTT cytotoxicity (growth inhibition) assay, HT-29; assay type: cell-based
Method: (§1) • Cell culture. Cell culture media were purchased from Gibco (Grand Island, NY, USA). Fetal bovine serum (FBS) was a product of Harlan-Seralab (Belton, UK). Supplements and other chemicals not listed in this section were obtained from Sigma Chemical Co. (St. Louis, MO, USA). Plastics for cell culture were supplied by Thermo Scientific BioLite. All tested compounds were dissolved in DMSO at a concentration of 20 mM and stored at –20 °C until use. HT-29, A-549, and HEK-293 cell lines were maintained in a Dulbecco’s modified Eagle’s medium (DMEM) containing glucose (1 g/L), glutamine (2 mM), penicillin (50 μg/mL), streptomycin (50 μg/mL), and amphotericin B (1.25 μg/mL), supplemented with 10% FBS. • Cytotoxicity assays. 5 × 10^3 cells per well were incubated in 96-well plates with serial dilutions of the tested compounds in a total volume of 100 μL of their growth media. 3-(4,5-dimethylthiazol-2-yl)-2,5-diphenyltetrazolium bromide (MTT; Sigma Chemical Co.) dye reduction assay in 96-well microplates was used. Then, 10 μL of MTT (5 mg/mL in phosphate-buffered saline, PBS) was added to each well after 2 days of incubation (37 °C, 5% CO2 in a humid atmosphere). The plate was incubated for a further 3 h (37 °C). After that, the supernatant was discarded and 100 μL of DMSO were added in order to dissolve formazan crystals. The absorbance was read at 550 nm by spectro-photometry. For all concentrations of compound, cell viability was expressed as the percentage of the ratio between the mean absorbance of treated cells and the mean absorbance of untreated cells. Three independent experiments were performed, and the IC50 values (i.e., concentration half inhibiting cell proliferation) were graphically determined using GraphPad Prism 9 software.

[2] = tested on: human lung cancer cell line A-549; test: MTT cytotoxicity (growth inhibition) assay, A-549; assay type: cell-based
Method: as §1

[3] = MTT cytotoxicity (growth inhibition) assay, HEK-293 (non-tumor); assay type: cell-based; conditions: human, HEK-293 embryonic kidney cells (non-tumor)
Method: as §1

[4] = tested on: K562 leukemia cancer cell line; parameters: method as in PMID 18396050; conditions: ref [15], cited from earlier work
[5] = tested on: human colon cancer cell line HT-29; parameters: method as in PMID 32033084; conditions: reference compound; ref [30]; read-out: Cytotoxicity IC50 HT-29; cited from earlier work
[6] = tested on: human lung cancer cell line A-549; parameters: method as in PMID 32033084; conditions: reference compound; ref [30]; read-out: Cytotoxicity IC50 A-549; cited from earlier work
[7] = tested on: human embryonic kidney cell line HEK-293; parameters: method as in PMID 32033084; conditions: reference compound; ref [30]; read-out: Cytotoxicity IC50 HEK-293; cited from earlier work
[8] = tested on: HT-29; parameters: method as in PMID 18396050, PMID 18681482, PMID 22137934, PMID 22304851, PMID 24222525; conditions: known triazole analogues of CA-4; ref [15],[16],[17],[18],[19],[20]; read-out: IC50 HT-29 (Figure 2); cited from earlier work
[9] = HT-29, 48 h, read-out: Cytotoxicity IC50 HT-29
[10] = A549, 48 h, read-out: Cytotoxicity IC50 A-549
[11] = known triazole analogues of CA-4, read-out: IC50 K562 (Figure 2)

With COc1cc(-n2nncc2-c2ccccc2)cc(OC)c1OC [3a, 5-phenyl-1-(3,4,5-trimethoxyphenyl)-1H-1,2,3-triazole] the IC50 [1, 9] was greater than 100 µM, the IC50 [2, 10] was greater than 200 µM and the IC50 at 48 h [3] was greater than 200 µM.

COc1cc(-n2nncc2-c2ccccc2Br)cc(OC)c1OC [3b, 5-(2-bromophenyl)-1-(3,4,5-trimethoxyphenyl)-1H-1,2,3-triazole] showed an IC50 [1, 9] greater than 100 µM, an IC50 [2, 10] greater than 100 µM and an IC50 at 48 h [3] greater than 200 µM.

With COc1cc(-n2nncc2-c2ccccc2[N+](=O)[O-])cc(OC)c1OC [3c, 5-(2-nitrophenyl)-1-(3,4,5-trimethoxyphenyl)-1H-1,2,3-triazole] the IC50 [1, 9] was greater than 100 µM, the IC50 [2, 10] was greater than 200 µM and the IC50 at 48 h [3] was greater than 200 µM.

Compound COc1cc(-n2nncc2-c2ccc(C)cc2)cc(OC)c1OC [3d, 5-(p-tolyl)-1-(3,4,5-trimethoxyphenyl)-1H-1,2,3-triazole] has an IC50 [1, 9] greater than 100 µM, an IC50 [2, 10] greater than 200 µM and an IC50 at 48 h [3] greater than 200 µM.

Work on COc1cc(-n2nncc2-c2ccc(C(F)(F)F)cc2)cc(OC)c1OC [3e, 5-(4-(trifluoromethyl)phenyl)-1-(3,4,5-trimethoxyphenyl)-1H-1,2,3-triazole] yielded an IC50 [1, 9] of 54 ± 3 µM, an IC50 [2, 10] greater than 100 µM and an IC50 at 48 h [3] greater than 200 µM.

For COc1cc(-n2nncc2-c2ccc(F)cc2)cc(OC)c1OC [3f, 5-(4-fluorophenyl)-1-(3,4,5-trimethoxyphenyl)-1H-1,2,3-triazole], the IC50 [1, 9] was greater than 200 µM, the IC50 [2, 10] was greater than 200 µM and the IC50 at 48 h [3] was greater than 200 µM.

In the case of COc1cc(-n2nncc2-c2ccc(Cl)cc2)cc(OC)c1OC [3g, 5-(4-chlorophenyl)-1-(3,4,5-trimethoxyphenyl)-1H-1,2,3-triazole], the IC50 [1, 9] is reported as greater than 100 µM, the IC50 [2, 10] is reported as greater than 100 µM and the IC50 at 48 h [3] is reported as greater than 200 µM.

COc1cc(-n2nncc2-c2ccc(Br)cc2)cc(OC)c1OC [3h, 5-(4-bromophenyl)-1-(3,4,5-trimethoxyphenyl)-1H-1,2,3-triazole] gave an IC50 [1, 9] greater than 100 µM, an IC50 [2, 10] greater than 100 µM and an IC50 at 48 h [3] greater than 200 µM.

Compound COc1ccc(-c2cnnn2-c2cc(OC)c(OC)c(OC)c2)cc1 [3i, 5-(4-methoxyphenyl)-1-(3,4,5-trimethoxyphenyl)-1H-1,2,3-triazole] has an IC50 [1, 9] of 0.02 ± 0.009 µM, an IC50 [2, 10] of 0.022 ± 0.007 µM and an IC50 at 48 h [3] of 35 ± 9 µM. For the same compound, the IC50 ([4]; previously described, read-out: IC50 K562 leukemia cancer cell line) was 0.027 µM.

CCOc1ccc(-c2cnnn2-c2cc(OC)c(OC)c(OC)c2)cc1 [3j, 5-(4-ethoxyphenyl)-1-(3,4,5-trimethoxyphenyl)-1H-1,2,3-triazole] showed an IC50 [1, 9] of 0.0021 ± 0.0009 µM, an IC50 ([1]; HT-29, 48 h incubation, rounded value, read-out: IC50 HT-29) of 0.002 µM and an IC50 [2, 10] of 5.8 ± 0.8 µM. For the same compound, the IC50 at 48 h [3] was 19 ± 4 µM.

Compound COc1ccc(-c2cnnn2-c2cc(OC)c(OC)c(OC)c2)c(Br)c1 [3k, 5-(2-bromo-4-methoxyphenyl)-1-(3,4,5-trimethoxyphenyl)-1H-1,2,3-triazole] has an IC50 [1, 9] of 56 ± 4 µM, an IC50 [2, 10] of 33 ± 2 µM and an IC50 at 48 h [3] greater than 100 µM.

In the case of COc1ccc(Br)c(-c2cnnn2-c2cc(OC)c(OC)c(OC)c2)c1 [3l, 5-(2-bromo-5-methoxyphenyl)-1-(3,4,5-trimethoxyphenyl)-1H-1,2,3-triazole], the IC50 [1, 9] is reported as greater than 100 µM, the IC50 [2, 10] is reported as greater than 200 µM and the IC50 at 48 h [3] is reported as greater than 200 µM.

In the case of CCOc1ccc(-c2cnnn2-c2cc(OC)c(OC)c(OC)c2)cc1Br [3m, 5-(3-bromo-4-ethoxyphenyl)-1-(3,4,5-trimethoxyphenyl)-1H-1,2,3-triazole], the IC50 [1, 9] is reported as 20 ± 5 µM, the IC50 [2, 10] is reported as 59 ± 1 µM and the IC50 at 48 h [3] is reported as greater than 200 µM.

With COc1ccc(-c2cnnn2-c2cc(OC)c(OC)c(OC)c2)cc1Cl [3n, 5-(3-chloro-4-methoxyphenyl)-1-(3,4,5-trimethoxyphenyl)-1H-1,2,3-triazole] the IC50 [1, 9] was 0.021 ± 0.006 µM, the IC50 [2, 10] was 0.0032 ± 0.0009 µM and the IC50 ([2]; A549, 48 h incubation, rounded value, read-out: IC50 A-549) was 0.003 µM. The IC50 at 48 h [3] was 0.025 ± 0.008 µM.

With COc1ccc(-c2cnnn2-c2cc(OC)c(OC)c(OC)c2)cc1OC [3o, 5-(3,4-dimethoxyphenyl)-1-(3,4,5-trimethoxyphenyl)-1H-1,2,3-triazoletriazole] the IC50 [1, 9] was greater than 100 µM, the IC50 [2, 10] was greater than 200 µM and the IC50 at 48 h [3] was greater than 200 µM.

Work on COc1cc(-n2nncc2-c2ccc(O)c(Br)c2)cc(OC)c1OC [3p, 2-bromo-4-(1-(3,4,5-trimethoxyphenyl)-1H-1,2,3-triazol-5-yl)phenol] yielded an IC50 [1, 9] greater than 200 µM, an IC50 [2, 10] greater than 200 µM and an IC50 at 48 h [3] greater than 200 µM.

With COc1cc(-n2nncc2-c2ccc(O)c(O)c2)cc(OC)c1OC [3q, 4-(1-(3,4,5-trimethoxyphenyl)-1H-1,2,3-triazol-5-yl)benzene-1,2-diol] the IC50 [1, 9] was greater than 200 µM, the IC50 [2, 10] was greater than 200 µM and the IC50 at 48 h [3] was greater than 200 µM.

For COc1ccc(/C=C\c2cc(OC)c(OC)c(OC)c2)cc1O [CA-4, combretastatin A-4], the IC50 [5] is given as 4.2 ± 0.5 µM, the IC50 [6] is given as 0.428 ± 0.004 µM and the IC50 [7] is given as 25 ± 3 µM.

For COc1ccc(-c2cnnn2-c2cc(OC)c(OC)c(OC)c2)cc1Br [R^1 = H, R^2 = Br], the IC50 [4, 11] is given as 0.057 µM.

For COc1ccc(-c2cnnn2-c2cc(OC)c(OC)c(OC)c2)cc1N [R^1 = H, R^2 = NH2], the IC50 [4, 11] is listed as 0.011 µM.

For COc1ccc(-c2cnnn2-c2cc(OC)c(OC)c(OC)c2)cc1[N+](=O)[O-] [R^1 = H, R^2 = NO2], the IC50 [4, 11] is given as 0.46 µM.

For COc1ccc(-c2cnnn2-c2cc(OC)c(OC)c(OC)c2)c(F)c1F [R^1 = R^2 = F], the IC50 [8] is listed as 1.9 µM.

For COc1ccc(-c2cnnn2-c2cc(OC)c(OC)c(OC)c2)c(N)c1N [R^1 = R^2 = NH2], the IC50 [8] is listed as 17.2 µM.

In the case of COc1cc(-n2nncc2-c2ccc(OC)c([N+](=O)[O-])c2[N+](=O)[O-])cc(OC)c1OC [R^1 = R^2 = NO2], the IC50 [8] is listed as 12 µM.
